This note sets out measurements from ChEMBL document CHEMBL1152015, “One-step synthesis of radioiodinated biotin derivatives” (Bioorg Med Chem Lett, 1996).

The nature of assay [1]: Compound was evaluated for its affinity towards avidin.
The nature of assay [2]: compound was evaluated for its affinity towards streptavidin.

Regarding `O=C(O)CCCC[C@@H]1SC[C@@H]2NC(=O)N[C@@H]21`, the Ka in assay [1] and in assay [2] was 1e+16 M⁻¹ throughout.
